Measured values: PMC9607599, “Dual Targeting Ligands—Histamine H3 Receptor Ligands with Monoamine Oxidase B Inhibitory Activity—In Vitro and In Vivo Evaluation” (Pharmaceutics, 2022)
“And” between values parts separate entries of the source, which are not always exact repeats. Equal values may be shown once. Where a name gives a salt, the structure may show the parent alone. Read-outs that look alike come from different tables or passages of the source. Blank lines part the entries; values can stand above or below the compound they belong to.

Key:
[1] = molecular target: T1, human MAO B (hMAO B) (Homo sapiens, UniProt P27338); assay: fluorometric MAO assay (p-tyramine substrate); type: biochemical; conditions: for IC50: fluorometric MAO assay, mean ± SEM of 2–4 independent experiments; for inhibition at 1 µM: mean of two independent experiments, read-out: hMAO B % of Inh.
T1 sequence (P27338 1-520): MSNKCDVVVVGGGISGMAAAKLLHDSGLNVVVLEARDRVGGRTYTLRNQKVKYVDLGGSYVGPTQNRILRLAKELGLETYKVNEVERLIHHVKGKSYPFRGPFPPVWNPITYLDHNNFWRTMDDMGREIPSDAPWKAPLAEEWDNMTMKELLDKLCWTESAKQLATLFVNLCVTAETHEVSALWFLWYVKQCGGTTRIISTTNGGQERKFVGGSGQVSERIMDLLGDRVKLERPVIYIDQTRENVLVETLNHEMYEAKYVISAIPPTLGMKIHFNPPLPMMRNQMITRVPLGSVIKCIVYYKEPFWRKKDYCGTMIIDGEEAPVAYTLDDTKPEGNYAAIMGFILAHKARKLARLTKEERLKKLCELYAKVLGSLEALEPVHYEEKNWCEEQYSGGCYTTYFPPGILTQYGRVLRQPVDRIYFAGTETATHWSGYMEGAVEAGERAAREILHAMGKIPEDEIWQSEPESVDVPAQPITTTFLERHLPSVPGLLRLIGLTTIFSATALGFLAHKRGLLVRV
Experimental: The precise method was described in [6]. First, compounds 4–32 were screened for hMAO B inhibitory activity at 1 μM concentration by the fluorometric method. Para-tyramine (200 μM) was used as a substrate for the enzyme and safinamide (1 μM) was used as a reference compound. […] Each experiment was performed in duplicate.
All compounds were first screened for hMAO B inhibitory activity at the concentration of 1 μM. […] Based on the results, we selected compounds 9 and 13 for further analysis.

[2] = molecular target: human histamine H3 receptor (hH3R) (Homo sapiens, UniProt Q9Y5N1); assay: [3H]Nα-methylhistamine radioligand binding assay in CHO-K1 cells stably expressing hH3R; design: expressed in transfected cells; host or cells: CHO-K1; conditions: for inhibition at 1 µM / hH3R activity in words: CHO K1 cells; for inhibition at 1 µM: two independent experiments, read-out: hH3R % Inh. (radioligand inhibition); for Ki: CHO-K1 cells, [3H]Nα-methylhistamine, mean ± SEM of three independent experiments
Experimental: Affinity to hH3R stably expressed in CHO-K1 [6] or HEK293 [11] cells was evaluated in a radioligand binding assay as described previously. Briefly, 10 mM stock solutions of the test compounds in DMSO were prepared. Each compound was tested at eight concentrations ranging from 10^−5 to 10^−12 M (final concentration). All assays were carried out in duplicate. […] The radioactivity was counted in MicroBeta 2 [6] or MicroBeta Trilux counter (PerkinElmer). Data were fitted to a one-site curve-fitting equation with Prism 6 (GraphPad Software, San Diego, CA, USA) and Ki values were calculated from IC50 values (from at least three experiments performed in duplicates) according to the Cheng−Prusoff equation [12].
Affinity for hH3R was evaluated in a radioligand binding assay using [^3H]N^α-methylhistamine as radioligand in CHO K1 or HEK293 cells stably expressing hH3R as described previously. […] Then, those with at least 50% inhibition for hH3R were selected for further testing (Ki evaluation). […] Compounds were tested in the binding assay in HEK293 cells.

[3] = molecular target: T1, human MAO B (hMAO B); assay: modality of hMAO B inhibition (Michaelis-Menten / Lineweaver-Burk); type: biochemical
Experimental: Modality of hMAO B inhibition was evaluated for compounds 9 and 13 and the reference safinamide according to the method described previously. Three concentrations of inhibitors, corresponding to their IC20, IC50 and IC80 values, were used. Each experiment was performed in triplicate. KM and Vmax values were calculated from Michaelis–Menten curves by nonlinear regression from the substrate. Lineweaver–Burk plots were calculated using linear regression in GraphPad Prism 6.07 (GraphPad Software, San Diego, CA, USA).
For testing modality of enzyme inhibition, we used three concentrations of inhibitors that corresponded to their IC20, IC50 and IC80 values. Substrate (p-tyramine) was used at concentrations: 0.05, 0.1, 0.5, 1.0, 1.5 and 2.0 mM.

[4] = molecular target: T2, MAO B (Homo sapiens, UniProt P27338); assay: reversibility of MAO B inhibition (reactivation by excess p-tyramine, with/without preincubation); type: biochemical; conditions: inhibitor at IC80; for reversibility of MAO B inhibition: excess p-tyramine 200 µM
T2 sequence (P27338 1-520): T1 sequence (P27338 1-520)
Experimental: The reversibility of the MAO inhibition was tested as described in [6, 7]. […] Two variants of experiment were performed. […] After 22 min, the concentration of the substrate was increased to 200 µM and the signal was measured for 5 h.

[5] = inhibitor at IC20, IC50, IC80, p-tyramine 0.05–2.0 mM

human histamine H3 receptor (hH3R), sequence (Q9Y5N1 whole entry): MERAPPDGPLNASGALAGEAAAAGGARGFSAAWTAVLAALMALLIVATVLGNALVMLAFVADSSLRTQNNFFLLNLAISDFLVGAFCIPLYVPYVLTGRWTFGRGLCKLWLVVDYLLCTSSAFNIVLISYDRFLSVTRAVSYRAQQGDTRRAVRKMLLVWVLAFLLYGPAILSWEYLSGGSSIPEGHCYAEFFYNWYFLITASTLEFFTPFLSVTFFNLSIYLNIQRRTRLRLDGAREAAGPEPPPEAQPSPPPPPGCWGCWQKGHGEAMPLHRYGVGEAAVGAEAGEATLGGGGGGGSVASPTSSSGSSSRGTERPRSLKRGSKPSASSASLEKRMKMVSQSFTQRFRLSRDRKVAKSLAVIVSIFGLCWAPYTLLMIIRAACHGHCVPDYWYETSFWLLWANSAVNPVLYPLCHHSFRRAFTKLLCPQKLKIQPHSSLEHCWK

SMILES: CCN(CC)CCCOc1ccc(C(C)(C)C)cc1.O=C(O)C(=O)O (hydrate or solvate) [Compound 7, 3-(4-(tert-Butyl)phenoxy)-N,N-diethylpropan-1-amine hydrogen oxalate]
melting point: 105 to 108 °C

SMILES: CC1CCCC(C)N1CCCOc1ccc(C(C)(C)C)cc1.Cl (centres unmarked) (hydrate or solvate) [Compound 11, 1-(3-(4-(tert-Butyl)phenoxy)propyl)-2,6-dimethylpiperidine hydrogen chloride]
melting point: 194 to 196 °C (dec.)

SMILES: CN(C)CCCOc1ccc(C(C)(C)C)cc1 [Compound 4, 3-(4-(tert-Butyl)phenoxy)-N,N-dimethylpropan-1-amine hydrogen oxalate]
IC50 [1]: 19 ± 2 nM
inhibition at 1 µM [2]: 24%

SMILES: CCN(C)CCCOc1ccc(C(C)(C)C)cc1 [Compound 5, 3-(4-(tert-Butyl)phenoxy)-N-ethyl-N-methylpropan-1-amine hydrogen oxalate]
IC50 [1]: 9 nM
Ki ([2]; read-out: hH3R Ki [nM] ± SEM): 484 ± 15 nM

SMILES: CC(C)N(C)CCCOc1ccc(C(C)(C)C)cc1 [Compound 6, 3-(4-(tert-Butyl)phenoxy)-N-isopropyl-N-methylpropan-1-amine hydrogen oxalate]
IC50 [1]: 6 ± 1 nM
Ki ([2]; read-out: hH3R Ki [nM] ± SEM): 900 ± 75 nM

SMILES: CCN(CC)CCCOc1ccc(C(C)(C)C)cc1 [Compound 7, 3-(4-(tert-Butyl)phenoxy)-N,N-diethylpropan-1-amine hydrogen oxalate]
IC50 [1]: 15 ± 4 nM
inhibition at 1 µM [2]: 32%

SMILES: CC(C)N(CCCOc1ccc(C(C)(C)C)cc1)C(C)C [Compound 8, 3-(4-(tert-Butyl)phenoxy)-N,N-diisopropylpropan-1-amine hydrogen chloride]
IC50 [1]: 37 ± 6 nM
inhibition at 1 µM [2]: 8%

SMILES: CC1CCCC(C)N1CCCOc1ccc(C(C)(C)C)cc1 (centres unmarked) [Compound 11, 1-(3-(4-(tert-Butyl)phenoxy)propyl)-2,6-dimethylpiperidine hydrogen chloride]
IC50 [1]: 9 ± 1 nM
Ki ([2]; read-out: hH3R Ki [nM] ± SEM): < 100 nM and 97 nM

SMILES: CC(C)(C)c1ccc(OCCCN2CCOCC2)cc1.O=C(O)C(=O)O [Compound 14, 4-(3-(4-(tert-Butyl)phenoxy)propyl)morpholine hydrogen oxalate]
IC50 [1]: 192 ± 14 nM
melting point: 188 to 192 °C
hH3R activity in words [2]: weak potency
inhibition at 1 µM [2]: 11%

SMILES: CN1CCN(CCCOc2ccc(C(C)(C)C)cc2)CC1.O=C(O)C(=O)O [Compound 15, 1-(3-(4-(tert-Butyl)phenoxy)propyl)-4-methylpiperazine hydrogen oxalate]
IC50 [1]: 665 ± 118 nM
hH3R activity in words [2]: no activity at all
inhibition at 1 µM [2]: 0%

SMILES: CC(C)(C)c1ccc(OCCCN2CCN(c3ccccc3)CC2)cc1.O=C(O)C(=O)O [Compound 16, 1-(3-(4-(tert-Butyl)phenoxy)propyl)-4-phenylpiperazine hydrogen oxalate]
inhibition at 1 µM [1]: 14%
melting point: 164 to 166 °C
hH3R activity in words [2]: weak potency
Ki ([2]; hH3R Ki [nM] ± SEM): 535 ± 41 nM

SMILES: CC(C)(C)c1ccc(OCCCN2CCN(C/C=C\c3ccccc3)CC2)cc1.O=C(O)C(=O)O [Compound 17, (Z)-1-(3-(4-(tert-Butyl)phenoxy)propyl)-4-(3-phenylallyl)piperazine hydrogen oxalate]
inhibition at 1 µM [1]: 7%
melting point: 217 to 219 °C
hH3R activity in words [2]: no activity at all
inhibition at 1 µM [2]: 0%

SMILES: CC(C)(C)c1ccccc1OCCCN1CCCCC1 [Compound 24, 1-(3-(2-(tert-Butyl)phenoxy)propyl)piperidine hydrogen oxalate]
inhibition at 1 µM [1]: 4%
Ki ([2]; read-out: hH3R Ki [nM] ± SEM): > 1000 nM
inhibition at 1 µM [2]: 13%

SMILES: Cc1cccc(C(C)(C)C)c1OCCCN1CCCCC1.O=C(O)C(=O)O [Compound 26, 1-(3-(2-(tert-Butyl)-6-methylphenoxy)propyl)piperidine hydrogen oxalate]
inhibition at 1 µM [1]: 0%
melting point: 134 to 135 °C
Ki ([2]; read-out: hH3R Ki [nM] ± SEM): > 1000 nM
inhibition at 1 µM [2]: 0%

SMILES: Cc1ccc(OCCCN2CCCCC2)c(C(C)(C)C)c1.O=C(O)C(=O)O [Compound 28, 1-(3-(2-(tert-Butyl)-4-methylphenoxy)propyl)piperidine hydrogen oxalate]
inhibition at 1 µM [1]: 7%
melting point: 182 to 184 °C
Ki ([2]; read-out: hH3R Ki [nM] ± SEM): 448 ± 59 nM

Continued, in another order:

melting point: 145 to 148 °C
SMILES: CC(C)(C)c1cccc(OCCCN2CCCCC2)c1.Cl (hydrate or solvate) [Compound 25, 1-(3-(3-(tert-Butyl)phenoxy)propyl)piperidine hydrogen chloride]

IC50 [1]: 1020 ± 69 nM
Ki ([2]; read-out: hH3R Ki [nM] ± SEM): 340 ± 23 nM
SMILES: CC(C)(C)c1cccc(OCCCN2CCCCC2)c1 [Compound 25, 1-(3-(3-(tert-Butyl)phenoxy)propyl)piperidine hydrogen chloride]

inhibition at 1 µM [1]: 4%
Ki ([2]; read-out: hH3R Ki [nM] ± SEM): > 1000 nM
inhibition at 1 µM [2]: 0%
SMILES: Cc1ccc(C(C)(C)C)c(OCCCN2CCCCC2)c1 [Compound 27, 1-(3-(2-(tert-Butyl)-5-methylphenoxy)propyl)piperidine hydrogen oxalate]

IC50 [1]: 2320 ± 436 nM
Ki ([2]; read-out: hH3R Ki [nM] ± SEM): > 1000 nM
inhibition at 1 µM [2]: 32%
SMILES: CC(C)(C)c1ccc(NC(=O)OCCCN2CCCCC2)cc1 [Compound 29, 3-(Piperidin-1-yl)propyl (4-(tert-butyl)phenyl)carbamate hydrogen oxalate]

inhibition at 1 µM [1]: 47%
inhibition at 1 µM [2]: 15%
SMILES: CC(C)(C)NC(=O)OCCCN1CCCCC1 [Compound 30, 3-(Piperidin-1-yl)propyl tert-butylcarbamate hydrogen oxalate]

inhibition at 1 µM [1]: 41%
inhibition at 1 µM [2]: 19%
SMILES: CC(C)(C)CC(C)(C)NC(=O)OCCCN1CCCCC1 [Compound 31, 3-(Piperidin-1-yl)propyl (2,4,4-trimethylpentan-2-yl)carbamate hydrogen oxalate]

IC50 [1]: 925 ± 29 nM
inhibition at 1 µM [2]: 20%
SMILES: CC(C)(C)CCNC(=O)OCCCN1CCCCC1 [Compound 32, 3-(Piperidin-1-yl)propyl (3,3-dimethylbutyl)carbamate hydrogen oxalate]

Ki ([2]; read-out: hH3R Ki [nM] ± SEM): 57 nM and 57.5 nM
SMILES: CC(C)(C)c1ccc(OCCCN2CCCCC2)cc1 [DL76, 1-(3-(4-tert-butylphenoxy)propyl)piperidine, reference compound]

Affinity (free enzyme vs enzyme-substrate complex) [3]: Free enzyme > enzyme-substrate complex
Mode of inhibition from kinetic values and LB plot [3]: Mixed mode
app. KM [3, 5]: ↑ curvilinearly with ↑ [I]
app. Vmax [3, 5]: ↓ curvilinearly with ↑ [I]
app. Vmax/app. KM [3, 5]: ↓ curvilinearly with ↑ [I]
reversibility of MAO B inhibition [4]: reversible inhibition
SMILES: C[C@H](NCc1ccc(OCc2cccc(F)c2)cc1)C(N)=O [Safinamide, reference compound]
Lines on LB plot ([3]; Lineweaver–Burk double-reciprocal plot): Lines intersect to the left of y-axis and above x-axis
effect of 30 min preincubation on inhibition (preincubated vs non-preincubated) [4]: did not show differences between the variants

reversibility of MAO B inhibition [4]: Irreversible inhibition
SMILES: C#CCN[C@@H]1CCc2ccccc21 [rasagiline, reference compound]
effect of 30 min preincubation on inhibition (preincubated vs non-preincubated) [4]: inhibited the enzyme more strongly than non-preincubated
